Laboratory results taken from patent publication US8835403B2, “Algin oligosaccharides and the derivatives thereof as well as the manufacture and the use of the same” (priority 2004, dated 2014).

What was measured:
[1] = tested on: diabetic mice induced by STZ; experiment: Blood glucose of diabetic mice induced by streptozotocin (STZ); format: in vivo; settings: dimethyldiguanide 5 mg/kg for 10 days, blood on 11th day; STZ 150 mg/kg i.p.
Method: Sixty male NIH mice (weighed 18-22 g) are randomly divided to control, model, 50, 150, 450 mg/kg 6-mer-treated and 5 mg/kg dimethyldiguanide-treated groups. The mice are injected intraperitoneally with 150 mg/kg STZ except control group at the 1st day. Then the mice are given accordingly drugs consecutively for 10 days and eyeballs are picked out to extract blood on the 11th day. The blood is taken to measure the glucose concentration.

Aβ1-40 fibril = Aβ1-40 fibril (Homo sapiens, UniProt P05067); experiment: Destability of preformed Aβ1-40 fibril (TEM); format: biochemical; settings: Aβ1-40 aged 7 d, then heparin for additional 24 h (FIG. 10B)
Sequence of Aβ1-40 fibril (P05067 672-711 limits assumed): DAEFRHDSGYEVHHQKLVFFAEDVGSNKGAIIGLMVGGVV
Method: 1 mg/ml of distilled water-resolved Aβ1-40 is aged at 37° C. for 7d, after which it is exposed to 6-mer for 3 days.

Aβ1-40 = Aβ1-40 (Homo sapiens, UniProt P05067); experiment: Conformation of Aβ1-40 by CD spectra; format: biochemical; settings: heparin (FIG. 11B)
Sequence of Aβ1-40 (P05067 672-711 limits assumed): as above
Method: CD spectra (J-[…], JASCO, Japan) of monomeric Aβ1-40 (250 μg/ml in TBS (100 mM Tris, 50 mM NaCl, pH7.4)) incubated at 37° C. for 12 h is mainly characterized by β-sheet secondary structure (FIG. 11A).

[2] = tested on: AD mice induced by Aβ1-40; experiment: Morris water maze test of AD mice induced by Aβ1-40; format: in vivo
Method: (§1) Male Balb/c mice (18-22 g, purchased from Laboratory Centre of Shandong University) are weighed and randomly assigned to six groups as follows: a control group, a model group, a low-concentration (15 mg/kg) 6-mer-treated group, a middle-concentration (30 mg/kg) 6-mer-treated group, a high-concentration (60 mg/kg) 6-mer-treated group, and a Huperzine A-treated (HBY, with a concentration of 0.2 mg/kg) group. The mice were oral administered with corresponding drugs on day 3 after grouping. The drugs were administered once a day consecutively with a dosage of 0.5 ml/20 g until the experiment is completed. The mice of control and model groups were simultaneously administered with an equivalent amount of normal saline.
On the 8th day after drug administration, mice are injected with aged Aβ1-40 except the vehicle group as the method of reference (Jhoo J H et al., β-amyloid (1-42)-induced learning and memory deficits in mice: involvement of oxidative burdens in the hippocampus and cerebral cortex. Behavioural Brain Research (2004) 155: 185-196) to induce the AD model. Aged Aβ1-40 solution is injected into the right cerebral ventricle. […] However, on the 1st day of test, this increased escape latency is shortened in all drug-treated groups except the group treated with 15 mg/kg of 6-mer. And the escape latency of 60 mg/kg 6-mer-treated group has statistical significance compared with that of the model group (P<0.05). On the 2nd and 3rd day of test, the escape latency of all drug-treated groups are shortened, wherein that of 60 mg/kg 6-mer-treated group and HBY-treated group have statistical significance compared with that of the model group (P<0.05).
On the 4th day of Morris water maze test, the original plate is removed and the percentage of time of mice staying at the phase of original plate within 60 s is recorded.

[3] = tested on: AD mice induced by Aβ1-40; experiment: Step-through passive avoidance task of AD mice induced by Aβ1-40; format: in vivo; settings: HBY 0.2 mg/kg
Method: as §1
On the 25th day after Aβ injection, mice are further trained for step-through passive avoidance task. In the task, each mouse is placed in the illuminated compartment of the apparatus, facing away from the dark compartment, and the door is opened, allowing access to the dark compartment. Once the mouse enters the dark compartment, it receives an inescapable electric shock on the feet (36 V) through the stainless steel grid floor. The test is similarly performed after 24 h. The entry time of each mouse into the dark chamber (step-through latency, maximum testing limited to 3 min) and the number of entries into the dark compartment (number of errors) are recorded.
Each group has 8 animals. The data are presented as mean±SE. The symbol # means significant difference compared with the control group (P<0.05). * means significant difference compared with the model group (P<0.05). The step-through latency of Aβ1-40-treated group is shortened (P<0.01) and the error number is increased (P<0.05) compared with that of the control group, indicating the successful establishment of AD mice.

ChAT = experiment: Cerebral cortex ChAT activity of Aβ1-40-induced AD mice; format: in vivo; settings: HBY 0.2 mg/kg
SOD = SOD activity of cerebral cortex and hippocampus of Aβ1-40-induced AD mice; format: in vivo; settings: HBY 0.2 mg/kg
MDA = MDA content of cerebral cortex and hippocampus of Aβ1-40-induced AD mice; format: in vivo; settings: HBY 0.2 mg/kg
GSH-PX = GSH-PX activity in cerebral cortex and hippocampus of Aβ1-40-induced AD mice; format: in vivo; settings: HBY 0.2 mg/kg
Method: (§2) Following the behavioral test, rats are decapitated. Cerebral cortex and hippocampus are dissected on ice immediately, and stored at −80° C. after quick freezing in liquid nitrogen for 1 hour. MDA, SOD, GSH-PX, Na^+, K^+-ATPase, AchE and CHAT activities in the brain regions are determined using the respective kits. The homogenates of cerebral cortex and hippocampus are prepared with saline with a final concentration of 10% and 5%. The supernatant were obtained after centrifuging at 3600 rpm to test MDA, CuZn-SOD, GSH-PX, Na^+K^+-ATPase, AchE, and CHAT activities. The activity of ChAT is determined with isotope-labeled method. The other indexes and amount of total proteins are tested with the respective kits supplied by Nanjing Jiancheng Bioengineering Institute.
The GSH-PX activity in cerebral cortex and hippocampus is decreased after usage of Aβ with significant difference to the control group in hippocampus (p<0.05).

Na+, K+-ATPase = Na+, K+-ATPase activity in cerebral cortex and hippocampus of Aβ1-40-induced AD mice; format: in vivo; settings: HBY 0.2 mg/kg
Method: as §2

## CN(C)C(=N)NC(=N)N [Dimethyldiguanide, dimethyldiguanide, reference compound]
[1]
  Blood glucose concentration: 201.6 ± 58.9 mg/dL

## heparin [reference compound]
Aβ1-40 fibril
  effect on preformed Aβ1-40 fibers (TEM): become much denser and longer
Aβ1-40
  conformational transition of Aβ1-40 to β-sheet structure (CD): significantly accelerates the conformational transition to β-sheet structure

## C/C=C1\[C@H]2C=C(C)C[C@]1(N)c1ccc(=O)[nH]c1C2 [HBY, Huperzine A, reference compound]
[2]; HBY 0.2 mg/kg oral once a day, 1st day of test
  Escape latency (s) 1st day: 76.29 ± 9.74 s
[2]; HBY 0.2 mg/kg oral once a day, 2nd day of test
  Escape latency (s) 2nd day: 64.58 ± 10.36 s
[2]; HBY 0.2 mg/kg oral once a day, 3rd day of test
  Escape latency (s) 3rd day: 63.83 ± 10.12 s
[2]; probe trial, 4th day, within 60 s, HBY 0.2 mg/kg
  Latency bias(%): 22.18 ± 5.93%
[3]; vs model group (FIG. 5)
  step-through latency: significantly prolonged
[3]; vs model group (FIG. 6)
  number of errors: significantly reduced
ChAT
  ChAT activity (pmol/mg prot./min): 100.70 ± 5.99 pmol/mg prot./min
SOD; cerebral cortex
  SOD activity (NU/mg prot.) cerebral cortex: 48.95 ± 2.13 NU/mg prot.
SOD; hippocampus
  SOD activity (NU/mg prot.) hippocampus: 69.91 ± 6.51 NU/mg prot.
MDA; cerebral cortex
  MDA content (nmol/ml) cerebral cortex: 1.61 ± 0.13 nmol/mL
MDA; hippocampus
  MDA content (nmol/ml) hippocampus: 2.26 ± 0.39 nmol/mL
GSH-PX; cerebral cortex
  GSH-PX (U/mg prot.) cerebral cortex: 8.85 ± 1.33 U/mg prot.
GSH-PX; hippocampus
  GSH-PX (U/mg prot.) hippocampus: 5.29 ± 0.99 U/mg prot.
Na+, K+-ATPase; cerebral cortex
  ATPase activity (μmol Pi/mg prot./hour) cerebral cortex: 0.91 ± 0.05 μmol Pi/mg prot./hour
Na+, K+-ATPase; hippocampus
  ATPase activity (μmol Pi/mg prot./hour) hippocampus: 2.35 ± 10.43 μmol Pi/mg prot./hour
